≈ marks a conversion by molar mass, not a printed value.

The values below come from PubChem BioAssay AID1996.

The conditions of this series: buffer; pH 7.4; 200.0 µM.
Take `CCCN(CC1CC1)CC(O)c1ccccc1.O=C(O)C(=O)O` (configuration not stated): the solubility (kinetic) is greater than 48.5 µg/mL. Then `Cc1ccc(S(=O)(=O)/N=C(/Nc2ccccc2C)c2ccccc2)cc1`, with 39.8 µg/mL (≈ 109 µM); and `O=C(O)C1CCCCC1C(=O)NCc1ccc(Cl)c(Cl)c1` (configuration not stated), with 35.6 µg/mL (≈ 108 µM); and `O=C(COC(=O)C1=COCCO1)NCc1ccc(Cl)cc1`, with 44.7 µg/mL (≈ 143 µM).

`COC(=O)c1ccsc1NS(=O)(=O)c1ccccc1` yielded a solubility (kinetic) of 44.1 µg/mL (≈ 148 µM). Take `O=C(COC(=O)c1ccco1)NCc1ccc(Cl)cc1Cl`: the solubility (kinetic) worked out at 14.1 µg/mL (≈ 43 µM). `COc1ccc(CC(=O)OCC(=O)Nc2ccc(Cl)cc2C)cc1` displayed a kinetic solubility of 9 µg/mL (≈ 25.9 µM). This solubility kinetic lies about 1.6-fold lower than the previous one. As for `CN1CCN(CC#Cc2ccccc2)CC1CCO` (configuration not stated), the kinetic solubility is greater than 38.8 µg/mL. The figure for `COc1ccccc1CNC(=O)COC(=O)c1cc(=O)c2ccccc2o1` is greater than 55.1 µg/mL; for `CCOc1cc(N2CCOCC2)c(OCC)cc1NC(=O)C(C)Oc1ccccc1` (configuration not stated) it is 43.6 µg/mL (≈ 105 µM). The figure for `Cc1cc(NC(=O)CSc2ccc(F)cc2)no1` is greater than 39.9 µg/mL; for `O=C(CSc1nc2ccccc2[nH]1)c1c[nH]c2ccccc12` it is 0.6 µg/mL (≈ 1.95 µM); for `O=c1c2ccccc2nc2n1CCS2(=O)=O` it is 34.6 µg/mL (≈ 146 µM).

`Cc1nc(SCC(=O)NC(=O)NC(C)C)nc(C)c1C` returned a solubility (kinetic) greater than 44.5 µg/mL. `CCc1c(C)sc(NC(=O)c2cc(C(C)C)on2)c1C#N` showed a kinetic solubility of 3.4 µg/mL (≈ 11.2 µM).

`CCc1noc(C)c1C(=O)Nc1ccc(F)c(F)c1F` returned a solubility (kinetic) greater than 42.6 µg/mL. The figure for `O=C(NCCCNC(=O)c1ccccn1)c1ccc(Cl)cc1` is 39 µg/mL (≈ 123 µM); for `CCOc1ccc(OCC(=O)Nc2ccc(S(N)(=O)=O)cc2)cc1` it is 7.1 µg/mL (≈ 20.3 µM). `CC1(C)C=C2C(=NN(c3ccccc3)C(N)=C2C#N)CO1`: the kinetic solubility was greater than 42 µg/mL. With `COc1cccc(Nc2cc(C)c3ccccc3n2)c1`, the solubility (kinetic) turned out to be 8.7 µg/mL (≈ 32.9 µM).

Consider `Cc1ccc(S(=O)(=O)NCCc2nc3ccccc3[nH]2)cc1`, for which the solubility (kinetic) was 36.3 µg/mL (≈ 115 µM). This solubility kinetic lies about 4.2-fold higher than the previous one. Then `O=C1OCCC1Sc1nnc(-c2ccco2)n1-c1ccccc1` (configuration not stated), with greater than 49.1 µg/mL; and `O=C(COC(=O)c1ccccc1OCc1ccc(Cl)cc1)NCC1CCCO1` (configuration not stated), with greater than 60.6 µg/mL; and `O=C(OCC(=O)N1CCC(Cc2ccccc2)CC1)c1cncc(Br)c1`, with 9.9 µg/mL (≈ 23.7 µM). The figure for `CCN1CC(CN(C)Cc2nc(Cc3ccccc3)no2)CC1=O` (configuration not stated) is greater than 49.3 µg/mL; for `Cc1cc(C)cc(C(=O)OCC(=O)NC2CCCC2)c1` it is 21.7 µg/mL (≈ 78.8 µM); for `CSc1ccc(Cl)c(C(=O)Nc2nccs2)c1` it is 2.8 µg/mL (≈ 9.83 µM). The figure for `CC1(/[N+]([O-])=C/c2ccc(F)cc2)CCCCC1=O` (configuration not stated) is 28.3 µg/mL (≈ 114 µM); for `Cc1cc(C)cc(CN2C(=O)NC3(CCCCCC3)C2=O)c1` it is 18.1 µg/mL (≈ 60.3 µM); for `CCC(C)c1ccc(NC(=O)NCCN2CCCCC2)cc1` (configuration not stated) it is 40.3 µg/mL (≈ 133 µM). Consider `COCCn1c(SC2CCOC2=O)nc2ccccc2c1=O` (configuration not stated), for which the solubility (kinetic) is greater than 48.1 µg/mL. Then `O=S1(=O)CC2SC(=S)N(Cc3ccccc3)C2C1` (configuration not stated), with 1.8 µg/mL (≈ 6.01 µM); and `COc1ccc(NC(=O)CO/N=C2/CCCc3nonc32)c(OC)c1`, with greater than 52 µg/mL.

The compound `CC(=O)Nc1cccc(Oc2nc(-c3ccccn3)nc3ccccc23)c1` had a solubility (kinetic) of 0.8 µg/mL (≈ 2.24 µM). Then `Cc1sc2ncnc(SCC(=O)N3CCCC(C(F)(F)F)C3)c2c1C` (configuration not stated), with 2.7 µg/mL (≈ 6.93 µM). Then `Cc1cnc(C(=O)N2CCN(S(=O)(=O)c3ccc(F)c(F)c3F)CC2)cn1`, with 55.8 µg/mL (≈ 139 µM); and `O=C1CN(C(=O)COC(=O)/C=C/c2ccc(F)cc2)c2ccccc2N1`, with 4.6 µg/mL (≈ 13 µM). In turn, `CCc1ccc(/C([O-])=C(/C(=S)NCCN2CCOCC2)[n+]2ccccc2)cc1` gave a kinetic solubility of 55.4 µg/mL (≈ 139 µM). Compound `O=C(NC(=S)Nc1ccccc1OC(F)F)c1ccc2c(c1)OCO2` returned a kinetic solubility of 4.4 µg/mL (≈ 12 µM). `Cc1ccccc1C(=O)NCC(=O)N1CCN(C/C=C/c2ccccc2)CC1` had a solubility (kinetic) greater than 56.6 µg/mL. In turn, `O=C(c1ccc(F)c(F)c1)N1CCCc2ccccc21` registered a solubility (kinetic) of 37.9 µg/mL (≈ 139 µM).

The compound `Nc1nc(Cl)cc(Oc2ccccc2F)n1` displayed a solubility (kinetic) of 15.6 µg/mL (≈ 65.1 µM). The figure for `CC1CCCCN1C(=O)c1cc2ccccc2cc1O` (configuration not stated) is greater than 40.4 µg/mL. `O=C(OCC(=O)N1CCOCC1)c1cc(F)c(F)cc1Cl`: the solubility (kinetic) is greater than 48 µg/mL. Compound `O=S(=O)(Nc1nc2ccccc2nc1Cl)c1ccc(F)cc1` came in with a kinetic solubility greater than 50.7 µg/mL. The figure for `Cc1ccc(C(=O)Nc2ccc(Cl)cc2C)c(Cl)c1` is less than 0.6 µg/mL; for `N#Cc1ccc(C(=O)NC(=S)NC2CCCCC2)cc1` it is 21.9 µg/mL (≈ 76.2 µM). Then `CC(=O)c1c(C)[nH]c(C(=O)CN(C)CC(=O)Nc2ccccc2Cl)c1C`, with greater than 56.4 µg/mL; and `COc1ccc(CN2C(=O)C(C)=C(C)C2OC)cc1` (configuration not stated), with greater than 39.2 µg/mL. On to `CCCc1cc(=O)[nH]c(SCC(=O)N2CCOCC2)n1`, for which the solubility (kinetic) is greater than 44.6 µg/mL. `CCOCCCNC(=O)C1CCN(S(=O)(=O)N2CCCC2)CC1` displayed a solubility (kinetic) greater than 52.1 µg/mL.

`O=C(O)CN1C(=O)NC2(CCc3ccccc32)C1=O` (configuration not stated): the solubility (kinetic) was greater than 39 µg/mL.
